The record followed here is patent publication US11590116B2 (THERAVANCE BIOPHARMA R&D IP, LLC, priority 2019, dated 2023).

Assay [1] has as its system TGF-β-stimulated SMAD3 phosphorylation in BEAS-2B cells. The assay can be described thus: Cellular ALK5 potency assay, inhibition of TGF-β stimulated pSMAD3 formation in BEAS-2B cells. The following applies: Homo sapiens; inhibition of TGF-β stimulated pSMAD3 formation, BEAS-2B cells; read-out: BEAS2B pIC50 (converted). The class given is cell-based. A digest of the protocol:
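Potency is reported as pIC50, derived from concentration-dependent reduction of pSMAD3 AlphaLISA signal against TGF-β-stimulated cells without compound. BEAS-2B cells received compound for 1 h before a 30-min stimulation with 10 ng/mL TGF-β.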

Assay [2] addresses T1, recombinant human ALK5 (TGF-βR1) protein (Homo sapiens, UniProt P36897).
T1 construct: purchased Life Technologies PR9075A
T1 sequence (P36897 34-503): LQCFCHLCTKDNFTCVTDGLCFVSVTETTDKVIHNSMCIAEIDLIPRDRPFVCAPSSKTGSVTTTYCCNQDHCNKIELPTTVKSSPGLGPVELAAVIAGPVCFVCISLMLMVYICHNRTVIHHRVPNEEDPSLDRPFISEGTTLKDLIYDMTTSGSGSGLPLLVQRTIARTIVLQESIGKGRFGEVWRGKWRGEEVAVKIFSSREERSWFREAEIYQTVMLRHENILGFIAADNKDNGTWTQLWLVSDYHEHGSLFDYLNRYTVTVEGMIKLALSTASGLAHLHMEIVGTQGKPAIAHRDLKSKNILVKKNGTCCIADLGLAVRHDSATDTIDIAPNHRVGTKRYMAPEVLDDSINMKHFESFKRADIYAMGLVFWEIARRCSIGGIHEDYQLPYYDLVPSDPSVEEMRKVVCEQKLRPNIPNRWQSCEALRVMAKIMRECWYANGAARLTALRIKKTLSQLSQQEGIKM
The assay can be described thus: Biochemical ALK5 (TGF-βR1) assay to measure pKi (LANCE Ultra ULight kinase assay). Conditions: apparent pKi from pIC50 by Cheng-Prusoff, read-out: ALK5 pKi (converted). The method, boiled down: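 After a 60 min room-temperature preincubation of ALK5 with compound, phosphorylation proceeds 60 min at 37 °C on ATP addition (125 μM as 5× stock). Detection: Eu-labelled phospho-Thr1342 Topo IIα antibody in EDTA buffer, pH 7.0; emission 665 nm.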
For orientation: TR-FRET usually uses a lanthanide donor and a delayed reading to cut background.

A value given as a limit tells only on which side of the number the result lay.

On to `C=C(CN1CCNCC1)c1cnc2ccc(-c3nc[nH]c3-c3cccc(C)n3)cc2c1` [Compound 256, 6-[5-(6-methyl-2-pyridyl)-1H-imidazol-4-yl]-3-[1-(piperazin-1-ylmethyl)vinyl]quinoline], for which the IC50 in assay [1] is 25.1 to 158 nM. Moreover, in assay [2], the Ki is 0.0398 to 0.316 nM.
Consider `Cc1cccc(-c2[nH]cnc2-c2ccc3ncc(Br)cc3c2)n1` [Compound 1190, 3-bromo-6-[5-(6-methyl-2-pyridyl)-1H-imidazol-4-yl]quinoline], for which the IC50 in assay [1] is < 20 nM. In assay [2], the Ki is 0.0398 to 0.316 nM.
For `Cc1cccc(-c2nc3ccccn3c2-c2ccc3ncc(-c4cnn(CCN)c4)cc3n2)n1` [Compound 660, 2-[4-[6-[2-(6-methyl-2-pyridyl)imidazo[1,2-a]pyridin-3-yl]-1,5-naphthyridin-3-yl]pyrazol-1-yl]ethanamine] the same measures were 25.1 to 158 nM and 0.0398 to 0.316 nM.
Consider `Cc1cccc(-c2[nH]cnc2-c2ccc3ncc(N4CCN(C)C(CC(=O)O[C@@H]5CCNC5)C4)cc3c2)n1` (stereo partly drawn) [Compound 344, [(3R)-pyrrolidin-3-yl]2-[1-methyl-4-[6-[5-(6-methyl-2-pyridyl)-1H-imidazol-4-yl]-3-quinolyl]piperazin-2-yl]acetate], for which the IC50 in assay [1] was 200 to 1260 nM. Also, in assay [2], the Ki is 0.0398 to 0.316 nM.
For `Cc1cccc(-c2[nH]cnc2-c2ccc3ncc(N4CCN(C)C(CC(=O)O)C4)cc3c2)n1` (stereo not drawn) [Compound 688, 2-[1-methyl-4-[6-[5-(6-methyl-2-pyridyl)-1H-imidazol-4-yl]-3-quinolyl]piperazin-2-yl]acetic acid] the same measures were 1580 to 10000 nM and 0.0398 to 0.316 nM.
With `Cc1cccc(-c2[nH]ncc2-c2ccc3ncc(C(=O)OCCCC4CCNCC4)cc3c2)n1` [Compound 1182, 3-(4-piperidyl)propyl 6-[5-(6-methyl-2-pyridyl)-1H-pyrazol-4-yl]quinoline-3-carboxylate], the IC50 in assay [1] is 25.1 to 158 nM. In assay [2], the Ki was 0.0398 to 0.316 nM.
For `Cc1cccc(-c2n[nH]cc2-c2ccc3nccc(C(=O)OCCN4CCOCC4)c3n2)n1` [Compound 827, 2-morpholinoethyl 6-[3-(6-methyl-2-pyridyl)-1H-pyrazol-4-yl]-1,5-naphthyridine-4-carboxylate], the IC50 in assay [1] is 25.1 to 158 nM. Moreover, the Ki in assay [2] is 0.398 to 3.16 nM.
In the case of `Cc1cccc(-c2nn(C3CCCCO3)cc2-c2ccc3ncc(-c4cnoc4)cc3n2)n1` (stereo not drawn) [Compound 203, 4-[6-[3-(6-methyl-2-pyridyl)-1-tetrahydropyran-2-yl-pyrazol-4-yl]-1,5-naphthyridin-3-yl]isoxazole], the IC50 in assay [1] is 200 to 1260 nM. In assay [2], the Ki is 0.398 to 3.16 nM.
The matching figures for `Cc1cccc(-c2n[nH]cc2-c2ccc3ncc(-c4cnco4)cc3n2)n1` [Compound 317, 5-[6-[3-(6-methyl-2-pyridyl)-1H-pyrazol-4-yl]-1,5-naphthyridin-3-yl]oxazole]: < 20 nM and 0.0398 to 0.316 nM.
For the molecule `Cc1cccc(-c2n[nH]cc2-c2ccc3ncc(C(=O)NCCN4CCN(C(C)C)CC4)cc3n2)n1` [Compound 378, N-[2-(4-isopropylpiperazin-1-yl)ethyl]-6-[3-(6-methyl-2-pyridyl)-1H-pyrazol-4-yl]-1,5-naphthyridine-3-carboxamide], the IC50 in assay [1] is 25.1 to 158 nM. Also, the Ki in assay [2] was 0.0398 to 0.316 nM.
On to `Cc1cccc(-c2[nH]nnc2-c2ccc3ncc(N4CCC(N5CCN(C)CC5)CC4)cc3n2)n1` [Compound 119, 7-[4-(4-methylpiperazin-1-yl)-1-piperidyl]-2-[5-(6-methyl-2-pyridyl)-1H-triazol-4-yl]-1,5-naphthyridine], for which the IC50 in assay [1] is 200 to 1260 nM. For the same molecule, in assay [2], the Ki was 0.0398 to 0.316 nM.
The matching figures for `Cc1nc(-c2n[nH]cc2-c2ccc3ncc(-c4cnn(C5CCCNC5)c4)cc3c2)ccc1F` (stereo not drawn) [Compound 458, 6-[3-(5-fluoro-6-methyl-2-pyridyl)-1H-pyrazol-4-yl]-3-[1-(3-piperidyl)pyrazol-4-yl]quinoline]: < 20 nM and < 0.0316 nM.
For `Cc1nc(-c2n[nH]cc2-c2ccc3ncc(-c4cn5c(n4)CNCC5)cc3n2)ccc1F` [Compound 422, 2-[3-(5-fluoro-6-methyl-2-pyridyl)-1H-pyrazol-4-yl]-7-(5,6,7,8-tetrahydroimidazo[1,2-a]pyrazin-2-yl)-1,5-naphthyridine] the same measures were 25.1 to 158 nM and < 0.0316 nM.
The matching figures for `Cc1cccc(-c2[nH]ncc2-c2ccc3ncc(-c4nnco4)cc3n2)n1` [Compound 677, 2-[6-[5-(6-methyl-2-pyridyl)-1H-pyrazol-4-yl]-1,5-naphthyridin-3-yl]-1,3,4-oxadiazole]: 25.1 to 158 nM and 0.0398 to 0.316 nM.
Regarding `Cc1nc(-c2n[nH]cc2-c2ccc3ncc(-c4cnc5n4CCNC5)cc3n2)ccc1F` [Compound 245, 2-[3-(5-fluoro-6-methyl-2-pyridyl)-1H-pyrazol-4-yl]-7-(5,6,7,8-tetrahydroimidazo[1,2-a]pyrazin-3-yl)-1,5-naphthyridine], in assay [1], the IC50 is 25.1 to 158 nM. Also, the Ki in assay [2] is 0.0398 to 0.316 nM.
For `Cc1cccc(-c2[nH]cnc2-c2ccc3ncc(-c4nc(C(=O)O[C@@H]5CCN(C)C5)cs4)cc3c2)n1` [Compound 744, [(3R)-1-methylpyrrolidin-3-yl] 2-[6-[5-(6-methyl-2-pyridyl)-1H-imidazol-4-yl]-3-quinolyl]thiazole-4-carboxylate] the same measures were 25.1 to 158 nM and 0.0398 to 0.316 nM.
`Cc1cccc(-c2nnn(Cc3ccccc3)c2-c2ccc3ncc(-c4cnn(C5CCCNC5)c4)cc3n2)n1` (stereo not drawn) [Compound 216, 2-(1-benzyl-4-(6-methylpyridin-2-yl)-1H-1,2,3-triazol-5-yl)-7-(1-(piperidin-3-yl)-1H-pyrazol-4-yl)-1,5-naphthyridine]: the IC50 in assay [1] is 25.1 to 158 nM. Also, the Ki in assay [2] was 0.0398 to 0.316 nM.
In the case of `Cc1cccc(-c2nc[nH]c2-c2ccc3ncc(-c4cnn([C@H]5CCCC[C@@H]5N)c4)cc3c2)n1` [Compound 656, (1S,2S)-2-[4-[6-[4-(6-methyl-2-pyridyl)-1H-imidazol-5-yl]-3-quinolyl]pyrazol-1-yl]cyclohexanamine], the IC50 in assay [1] is < 20 nM. For the same molecule, the Ki in assay [2] was < 0.0316 nM.
Turning to `CNCc1ccnc2ccc(-c3c[nH]nc3-c3cccc(C)n3)cc12` [Compound 549, N-methyl-1-[6-[3-(6-methyl-2-pyridyl)-1H-pyrazol-4-yl]-4-quinolyl]methanamine], the IC50 in assay [1] is 25.1 to 158 nM. Moreover, the Ki in assay [2] was 0.398 to 3.16 nM.
As to `Cc1cccc(-c2n[nH]cc2-c2ccc3ncc(-c4nc(C(N)=O)co4)cc3n2)n1` [Compound 480, 2-[6-[3-(6-methyl-2-pyridyl)-1H-pyrazol-4-yl]-1,5-naphthyridin-3-yl]oxazole-4-carboxamide], in assay [1], the IC50 is 25.1 to 158 nM. In addition, in assay [2], the Ki was 0.0398 to 0.316 nM.
For `Cc1cccc(-c2[nH]cnc2-c2ccc3ncc(C(=O)OCCN4CCCCC4)cc3c2)n1` [Compound 887, 2-(piperidin-1-yl)ethyl 6-(5-(6-methylpyridin-2-yl)-1H-imidazol-4-yl)quinoline-3-carboxylate], in assay [1], the IC50 is 25.1 to 158 nM. Besides, the Ki in assay [2] was 0.0398 to 0.316 nM.
As to `Cc1cccc(-c2[nH]nnc2-c2ccc3ncc(-c4cnn(C5CCCNC5)c4)cc3n2)n1` (stereo not drawn) [Compound 602, 2-[5-(6-methyl-2-pyridyl)-1H-triazol-4-yl]-7-[1-(3-piperidyl)pyrazol-4-yl]-1,5-naphthyridine], the IC50 in assay [1] is 200 to 1260 nM. Further, in assay [2], the Ki was < 0.0316 nM.
With `Cc1cccc(-c2n[nH]cc2-c2ccc3ncc(-c4coc(CCN5CCNCC5)n4)cc3n2)n1` [Compound 697, 4-[6-[3-(6-methyl-2-pyridyl)-1H-pyrazol-4-yl]-1,5-naphthyridin-3-yl]-2-(2-piperazin-1-ylethyl)oxazole], the IC50 in assay [1] is 200 to 1260 nM. Further, the Ki in assay [2] was 0.0398 to 0.316 nM.
As to `Cc1cccc(-c2n[nH]cc2-c2ccc3ncc(-c4cn(Cc5cccnc5)nn4)cc3n2)n1` [Compound 35, 2-[3-(6-methyl-2-pyridyl)-1H-pyrazol-4-yl]-7-[1-(3-pyridylmethyl)triazol-4-yl]-1,5-naphthyridine], in assay [1], the IC50 was < 20 nM. The Ki in assay [2] was 0.0398 to 0.316 nM.
Turning to `Cc1cccc(-c2[nH]cnc2-c2ccc3ncc(-c4ccc5c(c4)CC[C@H]5N)cc3c2)n1` [Compound 1154, (1R)-5-[6-[5-(6-methyl-2-pyridyl)-1H-imidazol-4-yl]-3-quinolyl]indan-1-amine], the IC50 in assay [1] is < 20 nM. The Ki in assay [2] was < 0.0316 nM.
Take `Cc1cccc(-c2[nH]cnc2-c2ccc3ncc(-c4ccc(C(=O)O)s4)cc3c2)n1` [Compound 1005, 5-(6-(5-(6-methylpyridin-2-yl)-1H-imidazol-4-yl)quinolin-3-yl)thiophene-2-carboxylic acid]: the IC50 in assay [1] was 1580 to 10000 nM. Also, the Ki in assay [2] is 0.0398 to 0.316 nM.
With `Cc1cccc(-c2[nH]cnc2-c2ccc3ncc(C4=CCC(N)CC4)cc3n2)n1` (stereo not drawn) [Compound 149, 4-[6-[5-(6-methyl-2-pyridyl)-1H-imidazol-4-yl]-1,5-naphthyridin-3-yl]cyclohex-3-en-1-amine], the IC50 in assay [1] is 25.1 to 158 nM. For the same molecule, the Ki in assay [2] was < 0.0316 nM.
